Data published in patent publication US20240239811A1, “5-(5-(PIPERIDIN-4-YL)THIENO[3,2-C]PYRAZOL-2-YL]INDAZOLE DERIVATIVES AND RELATED COMPOUNDS AS MODULATORS FOR SPLICING NUCLEIC ACIDS AND FOR THE T” (REMIX THERAPEUTICS INC., priority 2020, published 2024).
Counter-ions that a name gives are not always drawn.

Tests used:
Type in all cases: cell-based
HTT CJ mRNA = assay: Gene panel canonical junction qPCR assay, HTT; details: Table 6, decrease in CJ mRNA, read-out: HTT IC50 (decrease in CJ mRNA levels)
Procedure: (§1) Compounds described herein were used to modulate RNA transcript abundance in cells. The expression of a target mRNA was measured by detecting the formation of an exon-exon junction in the canonical transcript (CJ). A compound mediated exon-inclusion event was detected by observing an increase in formation of a new junction with an alternative exon (AJ). Real-time qPCR assays were used to detect these splicing switches and interrogate the potency of various compounds towards different target genes. A high-throughput real time quantitative PCR (RT-qPCR) assay was developed to measure these two isoforms of the mRNA (CJ and AJ) for an exemplary gene, HTT, together with a control housekeeping gene, GAPDH or GUSB or PPIA, used for normalization. Briefly, the A673 or K562 cell line was treated with various compounds described herein (e.g., compounds of Formula (I)). After treatment, the levels of the HTT mRNA targets were determined from each sample of cell lysate by cDNA synthesis followed by qPCR.
(§2) The A673 cell line was cultured in DMEM with 10% FBS. Cells were diluted with full growth media and plated in a 96-well plate (15,000 cells in 100ul media per well). The plate was incubated at 37° C. with 5% CO2 for 24 hours to allow cells to adhere. An 11-point 3-fold serial dilution of the compounds was made in DMSO then diluted in media in an intermediate plate. Compounds were transferred from the intermediate plate to the cell plate with the top dose at a final concentration of 10 uM in the well. Final DMSO concentration was kept at or below 0.25%. The cell plate was returned to the incubator at 37° C. with 5% CO2 for an additional 24 hours.
(§3) The K562 cell line was cultured in IMDM with 10% FBS. For K562, cells were diluted with full growth media and plated in either a 96-well plate (50,000 cells in 50 uL media per well) or a 384-well plate (8,000-40,000 cells in 45 uL media per well). An 11-point 3-fold serial dilution of the compounds were made in DMSO then diluted in media in an intermediate plate. Compound was transferred from the intermediate plate to the cell plate with the top dose at a final concentration of 10 uM in the well. Final DMSO concentration was kept at or below 0.25%. Final volume was 100 uL for 96-well plate and 50 uL for 384-well plate. The cell plate was then placed in an incubator at 37° C. with 5% CO2 for 24 hours.
(§4) The data analysis was performed by first determining the ΔCt vs the housekeeper gene. This ΔCt was then normalized against the DMSO control (ΔΔCt) and converted to RQ (relative quantification) using the 2^(−ΔΔCt) equation. The RQ were then converted to a percentage response by arbitrarily setting an assay window of 3.5 ΔCt for HTT-CJ and an assay window of 9 ΔCt for HTT-AJ. […] The percentage response was then fitted to the 4 parametric logistic equation to evaluate the concentration dependence of compound treatment. The increase in AJ mRNA is reported as AC50 (compound concentration having 50% response in AJ increase) while the decrease in CJ mRNA levels is reported as IC50 (compound concentration having 50% response in CJ decrease).
(§5) Additional studies were carried out for a larger panel of genes using the protocol provided above. The junction between flanking upstream and downstream exons was used to design canonical junction qPCR assays. At least one of the forward primer, reverse primer or the CY5-labeled 5′ nuclease probe (with 3′ quencher such as ZEN/Iowa Black FQ) was designed to overlap with the exon junction to capture the CJ mRNA transcript. BLAST was used to confirm the specificity of the probeset and parameters such as melting temperature, GC content, amplicon size, and primer dimer formation are considered during their design. Data for the decrease in CJ mRNA levels for three exemplary genes (HTT, SMN2, and Target C) analyzed in this panel are reported as IC50 (compound concentration having […] in CJ decrease).

HTT mRNA = assay: Splicing assay (RT-qPCR) monitoring HTT splice variants, canonical (CJ) and alternative (AJ) junction; details: 50% response, A673 or K562 cell line, 24 hours; for IC50: decrease in CJ mRNA; for AC50: increase in AJ mRNA
Procedure: as §1
• Cells-to-CT 1-step kit: ThermoFisher A25602, Cells-to-CT lysis reagent: ThermoFisher 4391851C, TaqMan™ Fast Virus 1-Step Master Mix: ThermoFisher 4444436 • GAPDH: VIC-PL, ThermoFisher 4326317E (Assay: Hs99999905_ml)—used for K562/suspension cell lines • GUSB: VIC-PL, ThermoFisher 4326320E (Assay: Hs99999908_ml)—used for K562/suspension cell lines • PPIA: VIC-PL, ThermoFisher 4326316E (Assay: Hs99999904_ml)—used for A673/adherent cell lines
as §2, §3
The cells were then gently washed with 50 uL-100 uL cold PBS before proceeding to addition of lysis buffer. 30 uL-50 uL of room temperature lysis buffer with DNAse I (and optionally RNAsin) was added to each well. Cells were shaken/mixed thoroughly at room temperature for 5-10 minutes for lysis to take place and then 3 uL-5 uL of room temperature stop solution was added and wells were shaken/mixed again. After 2-5 minutes, the cell lysate plate was transferred to ice for RT-qPCR reaction setup. The lysates could also be frozen at −80° C. for later use.
In some cases, a direct lysis buffer was used. An appropriate volume of 3X lysis buffer (10 mM Tris, 150 mM NaCl, 1.5%-2.5% Igepal and 0.1-1 U/uL RNAsin, pH 7.4) was directly added to either K562 or A673 cells in media and mixed by pipetting 3 times. The plates were then incubated at room temperature with shaking/rocking for 20-50 minutes to allow for lysis to take place. After this time, the cell lysate plate was transferred to ice to set up for the RT-qPCR reactions. The lysates could also be frozen at −80° C. for later use. […]

Target C CJ mRNA = assay: Gene panel canonical junction qPCR assay, Target C; details: Table 6, decrease in CJ mRNA, read-out: Target C IC50 (decrease in CJ mRNA levels)
Procedure: as §1, §2, §3, §4, §5

SMN2 CJ mRNA = assay: Gene panel canonical junction qPCR assay, SMN2; details: Table 6, decrease in CJ mRNA, read-out: SMN2 IC50 (decrease in CJ mRNA levels)
Procedure: as §1, §2, §3, §4, §5

Row | Compound | IC50 (HTT CJ mRNA) [nM] | IC50 (HTT mRNA) [nM] | IC50 (Target C CJ mRNA) [nM] | IC50 (SMN2 CJ mRNA) [nM] | AC50 (HTT mRNA) [nM]
1 | Cn1cc2cc(-c3nc4sc(N5CCNCC5)c(Cl)c4s3)cc(F)c2n1 [Compound 147] | 100 to 1000 | 100 to 1000 | 1000 to 10000 | < 100 | 100 to 1000
2 | CCN1CCC(n2cc3cc(-c4cc(F)c5nn(C)cc5c4)sc3n2)CC1 [Compound 149, 5-[2-(1-ethylpiperidin-4-yl)thieno[2,3-c]pyrazol-5-yl]-7-fluoro-2-methylindazole] | < 100 | < 100 | 100 to 1000 | < 100 | < 100
3 | CN1CCC(n2cc3cc(-c4cc(F)c5nn(C)cc5c4)sc3n2)CC1 [Compound 150, 7-fluoro-2-methyl-5-[2-(1-methylpiperidin-4-yl)thieno[2,3-c]pyrazol-5-yl]indazole] | 100 to 1000 | 100 to 1000 | 100 to 1000 | < 100 | 100 to 1000
4 | CN1CCC(c2cc3sc(-c4cc(F)c5nn(C)cc5c4)nc3s2)CC1 [Compound 151, 7-fluoro-2-methyl-5-[5-(1-methylpiperidin-4-yl)thieno[2,3-d][1,3]thiazol-2-yl]indazole] | < 100 | < 100 | < 100 | < 100 | < 100
5 | CN(C)C1CCN(c2cc3sc(-c4cc(F)c5nn(C)cc5c4)nc3s2)CC1 [Compound 154, 1-[2-(7-fluoro-2-methylindazol-5-yl)thieno[2,3-d][1,3]thiazol-5-yl]-N,N-dimethylpiperidin-4-amine] | 100 to 1000 | 100 to 1000 | 100 to 1000 | < 100 | 100 to 1000
6 | Cn1cc2cc(-c3cc4cn([C@@H]5CCNC5)nc4s3)cc(F)c2n1 [Compound 160, (R)-5-(7-fluoro-2-methyl-2H-indazol-5-yl)-2-(pyrrolidin-3-yl)-2H-thieno[2,3-c]pyrazole hydrochloride] | 1000 to 10000 | 1000 to 10000 | > 10000 | 100 to 1000 | 1000 to 10000
7 | Cn1cc2cc(-c3cc4cn(C5CCOCC5)nc4s3)cc(F)c2n1 [Compound 161, 7-fluoro-2-methyl-5-[2-(oxan-4-yl)thieno[2,3-c]pyrazol-5-yl] indazole] | > 10000 | > 10000 | > 10000 | > 10000 | > 10000
8 | Cc1nc2c(F)cc(-n3cc4sc(C5CCNCC5)cc4n3)cc2o1 [Compound 167] | 100 to 1000 | 100 to 1000 | 1000 to 10000 | 100 to 1000 | 100 to 1000
9 | Cc1nc2c(F)cc(-n3cc4sc(C5CCNCC5)cc4n3)cc2s1 [Compound 168] | 1000 to 10000 | 1000 to 10000 | > 10000 | 100 to 1000 | 1000 to 10000

Now from value to compound, other results behind:

Row | IC50 (HTT CJ mRNA) [nM] | IC50 (HTT mRNA) [nM] | IC50 (Target C CJ mRNA) [nM] | IC50 (SMN2 CJ mRNA) [nM] | Compound | AC50 (HTT mRNA) [nM]
10 | 100 to 1000 | 100 to 1000 | 1000 to 10000 | < 100 | Cc1cn2cc(-n3cc4cc(C5CCNCC5)sc4n3)cc(C)c2n1 [Compound 155] | 100 to 1000
11 | < 100 | < 100 | 100 to 1000 | < 100 | Cc1cn2cc(-n3cc4cc(C5CCNCC5)sc4n3)cc(F)c2n1 [Compound 156] | 100 to 1000
12 | 100 to 1000 | 100 to 1000 | 100 to 1000 | < 100 | Cc1nc2c(F)cc(-n3cc4cc(C5CCNCC5)sc4n3)cc2o1 [Compound 157] | 100 to 1000
13 | 100 to 1000 | 100 to 1000 | 100 to 1000 | 100 to 1000 | Cc1cn2cc(-n3cc4cc(C5CCNCC5)sc4n3)ncc2n1 [Compound 158] | 100 to 1000
14 | < 100 | < 100 | 100 to 1000 | < 100 | Cc1cn2nc(-c3cc4cn(C5CCNCC5)nc4s3)cc(C)c2n1 [Compound 162, 4-(5-{2,8-dimethylimidazo[1,2-b]pyridazin-6-yl}thieno[2,3-c]pyrazol-2-yl)piperidine] | < 100
15 | 1000 to 10000 | 1000 to 10000 | 1000 to 10000 | 1000 to 10000 | Cc1cn2nc(-n3cc4cc(C5CCNCC5)sc4n3)nc2c(C)n1 [Compound 163, 4-(2-{6,8-dimethyl-[1,2,4]triazolo [1,5-a]pyrazin-2-yl}thieno[2,3-c]pyrazol-5-yl)piperidine] | 1000 to 10000
16 | 1000 to 10000 | 1000 to 10000 | 1000 to 10000 | 1000 to 10000 | Cc1cn2nc(-n3cc4cc(C5CCNCC5)sc4n3)cc2c(C)n1 [Compound 164] | 1000 to 10000
17 | < 100 | < 100 | 100 to 1000 | < 100 | Cc1cn2cc(-n3cc4cc(C5CCNCC5)sc4n3)cc(Cl)c2n1 [Compound 165] | < 100
18 | 100 to 1000 | 100 to 1000 | 1000 to 10000 | 100 to 1000 | Cc1cn2cc(-n3cc4sc(C5CCNCC5)cc4n3)cc(F)c2n1 [Compound 166, 4-(2-{8-fluoro-2-methylimidazo[1,2-a]pyridin-6-yl}thieno[3,2-c]pyrazol-5-yl)piperidine] | 100 to 1000
19 | 1000 to 10000 | 1000 to 10000 | 1000 to 10000 | 1000 to 10000 | Cc1cn2cc(-n3cc4sc(C5CCNCC5)cc4n3)ncc2n1 [Compound 169] | 1000 to 10000
20 | 1000 to 10000 | 1000 to 10000 | 1000 to 10000 | 1000 to 10000 | Cc1cn2nc(-n3cc4sc(C5CCNCC5)cc4n3)nc2c(C)n1 [Compound 170] | 1000 to 10000
21 | 100 to 1000 | 100 to 1000 | 1000 to 10000 | 100 to 1000 | Cc1cn2nc(-n3cc4sc(C5CCNCC5)cc4n3)cc2c(C)n1 [Compound 171] | 100 to 1000
22 | 100 to 1000 | 100 to 1000 | 1000 to 10000 | 100 to 1000 | Cc1cn2cc(-n3cc4sc(C5CCNCC5)cc4n3)cc(Cl)c2n1 [Compound 172] | 100 to 1000
23 | 1000 to 10000 | 1000 to 10000 | > 10000 | 1000 to 10000 | Cc1cn2cc(-n3cc4sc(C5CCNCC5)cc4n3)cc(C)c2n1 [Compound 173] | 1000 to 10000
